Laboratory results published in publication PMC10504751, “Chalcone/1,3,4-Oxadiazole/Benzimidazole hybrids as novel anti-proliferative agents inducing apoptosis and inhibiting EGFR & BRAFV^600E” (BMC Chemistry, 2023).

Legend:
Assay in all cases: NCI one-dose SRB anti-proliferative screen
Type in all cases: cell-based
MALME-3M = settings: Homo sapiens; MALME-3M (Melanoma), NCI one dose 10 µM; read-out: Cell growth inhibition %
In short: (§1)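 Colorimetric sulforhodamine B assay after treatment with compound at one concentration, 10 µM.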

OVCAR-8 = settings: Homo sapiens; OVCAR-8 (Ovarian Cancer), NCI one dose 10 µM; read-out: Cell growth inhibition %
In short: as §1

HCT-15 = settings: Homo sapiens; HCT-15 (Colon Cancer), NCI one dose 10 µM; read-out: Cell growth inhibition %
In short: as §1

SK-MEL-28 = settings: Homo sapiens; SK-MEL-28 (Melanoma), NCI one dose 10 µM; read-out: Cell growth inhibition %
In short: as §1

SR = settings: Homo sapiens; SR (Leukemia), NCI one dose 10 µM; read-out: Cell growth inhibition %
In short: as §1

OVCAR-3 = settings: Homo sapiens; OVCAR-3 (Ovarian Cancer), NCI one dose 10 µM; read-out: Cell growth inhibition %
In short: as §1

A549/ATCC = settings: Homo sapiens; A549/ATCC (Non-Small Cell Lung Cancer), NCI one dose 10 µM; read-out: Cell growth inhibition %
In short: as §1

SF-539 = settings: Homo sapiens; SF-539 (CNS Cancer), NCI one dose 10 µM; read-out: Cell growth inhibition %
In short: as §1

MDA-MB-231/ATCC = settings: Homo sapiens; MDA-MB-231/ATCC (Breast Cancer), NCI one dose 10 µM; read-out: Cell growth inhibition %
In short: as §1

PC-3 = settings: Homo sapiens; PC-3 (Prostate Cancer), NCI one dose 10 µM; read-out: Cell growth inhibition %
In short: as §1

OVCAR-5 = settings: Homo sapiens; OVCAR-5 (Ovarian Cancer), NCI one dose 10 µM; read-out: Cell growth inhibition %
In short: as §1

MDA-MB-435 = settings: Homo sapiens; MDA-MB-435 (Melanoma), NCI one dose 10 µM; read-out: Cell growth inhibition %
In short: as §1

NCI-H522 = settings: Homo sapiens; NCI-H522 (Non-Small Cell Lung Cancer), NCI one dose 10 µM; read-out: Cell growth inhibition %
In short: as §1

UACC-62 = settings: Homo sapiens; UACC-62 (Melanoma), NCI one dose 10 µM; read-out: Cell growth inhibition %
In short: as §1

786-0 = settings: Homo sapiens; 786-0 (Renal Cancer), NCI one dose 10 µM; read-out: Cell growth inhibition %
In short: as §1

ACHN = settings: Homo sapiens; ACHN (Renal Cancer), NCI one dose 10 µM; read-out: Cell growth inhibition %
In short: as §1

SK-MEL-2 = settings: Homo sapiens; SK-MEL-2 (Melanoma), NCI one dose 10 µM; read-out: Cell growth inhibition %
In short: as §1

NCI-H23 = settings: Homo sapiens; NCI-H23 (Non-Small Cell Lung Cancer), NCI one dose 10 µM; read-out: Cell growth inhibition %
In short: as §1

A498 = settings: Homo sapiens; A498 (Renal Cancer), NCI one dose 10 µM; read-out: Cell growth inhibition %
In short: as §1

OVCAR-4 = settings: Homo sapiens; OVCAR-4 (Ovarian Cancer), NCI one dose 10 µM; read-out: Cell growth inhibition %
In short: as §1

NCI-H322M = settings: Homo sapiens; NCI-H322M (Non-Small Cell Lung Cancer), NCI one dose 10 µM; read-out: Cell growth inhibition %
In short: as §1

SN12C = settings: Homo sapiens, SN 12C (Renal Cancer), NCI one dose 10 µM, read-out: Cell growth inhibition %
In short: as §1

NCI-H226 = settings: Homo sapiens; NCI-H226 (Non-Small Cell Lung Cancer), NCI one dose 10 µM; read-out: Cell growth inhibition %
In short: as §1

NCI/ADR-RES = settings: Homo sapiens; NCI/ADR-RES (Ovarian Cancer), NCI one dose 10 µM; read-out: Cell growth inhibition %
In short: as §1

M14 = settings: Homo sapiens; M14 (Melanoma), NCI one dose 10 µM; read-out: Cell growth inhibition %
In short: as §1

UO-31 = settings: Homo sapiens; UO-31 (Renal Cancer), NCI one dose 10 µM; read-out: Cell growth inhibition %
In short: as §1

HL-60(TB) = settings: Homo sapiens; HL-60(TB) (Leukemia), NCI one dose 10 µM; read-out: Cell growth inhibition %
In short: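 Activity reflects a single-point exposure at 10 µM, with cell mass determined by a sulforhodamine B dye assay.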

TK-10 = settings: Homo sapiens; TK-10 (Renal Cancer), NCI one dose 10 µM; read-out: Cell growth inhibition %
In short: as §1

BT-549 = settings: Homo sapiens; BT-549 (Breast Cancer), NCI one dose 10 µM; read-out: Cell growth inhibition %
In short: as §1

U251 = settings: Homo sapiens, U-251; U251 (CNS Cancer), NCI one dose 10 µM; read-out: Cell growth inhibition %
In short: as §1

LOX IMVI = settings: Homo sapiens, LOX IMIV (Melanoma), NCI one dose 10 µM, read-out: Cell growth inhibition %
In short: as §1

## COc1ccc(/C=C/C(=O)c2ccc(NC(=O)CSc3nnc(-c4ccc5[nH]c(-c6ccc(OC)c(OC)c6)nc5c4)o3)cc2)cc1 [Compound 7r, 2-{5-[2-(3,4-Dimethoxyphenyl)-1 H-benzo[d]imidazol-5-yl]-1,3,4-oxadiazol-2-ylthio}-N-{4-[(E)-3-(4-methoxyphenyl)acryloyl]phenyl}acetamide]
MALME-3M
  inhibition at 10 µM: 8.71%
OVCAR-8
  inhibition at 10 µM: 11.1%
HCT-15
  inhibition at 10 µM: 2.32%
SK-MEL-28
  inhibition at 10 µM: 0%
SR
  inhibition at 10 µM: 30.6%
OVCAR-3
  inhibition at 10 µM: 0%
A549/ATCC
  inhibition at 10 µM: 0%
SF-539
  inhibition at 10 µM: 7.36%
MDA-MB-231/ATCC
  inhibition at 10 µM: 4.13%
PC-3
  inhibition at 10 µM: 7.58%
OVCAR-5
  inhibition at 10 µM: 0%
MDA-MB-435
  inhibition at 10 µM: 0%
NCI-H522
  inhibition at 10 µM: 14.3%
UACC-62
  inhibition at 10 µM: 11%
786-0
  inhibition at 10 µM: 0%
ACHN
  inhibition at 10 µM: 2.15%
SK-MEL-2
  inhibition at 10 µM: 0%
NCI-H23
  inhibition at 10 µM: 5.15%
A498
  inhibition at 10 µM: 0%
OVCAR-4
  inhibition at 10 µM: 0%
NCI-H322M
  inhibition at 10 µM: 1.05%
SN12C
  inhibition at 10 µM: 6.98%
NCI-H226
  inhibition at 10 µM: 2.08%
NCI/ADR-RES
  inhibition at 10 µM: 0%
M14
  inhibition at 10 µM: 0%
UO-31
  inhibition at 10 µM: 12.4%
HL-60(TB)
  inhibition at 10 µM: 20.9%
TK-10
  inhibition at 10 µM: 0%
BT-549
  inhibition at 10 µM: 5.47%
U251
  inhibition at 10 µM: 0%
LOX IMVI
  inhibition at 10 µM: 20.2%

## O=C(CSc1nnc(-c2ccc3[nH]c(-c4ccc(Cl)cc4)nc3c2)o1)Nc1ccc(C(=O)/C=C/c2ccc(Cl)cc2)cc1 [Compound 7g, 2-{5-[2-(4-Chlorophenyl)-1 H-benzo[d]imidazol-5-yl]-1,3,4-oxadiazol-2-ylthio}-N-{4-[(E)-3-(4-chlorophenyl)acryloyl]phenyl}acetamide]
MALME-3M
  inhibition at 10 µM: 0%
OVCAR-8
  inhibition at 10 µM: 2.88%
HCT-15
  inhibition at 10 µM: 10.2%
SK-MEL-28
  inhibition at 10 µM: 0%
SR
  inhibition at 10 µM: 50.2%
OVCAR-3
  inhibition at 10 µM: 0%
A549/ATCC
  inhibition at 10 µM: 4.52%
SF-539
  inhibition at 10 µM: 15.7%
MDA-MB-231/ATCC
  inhibition at 10 µM: 9.38%
PC-3
  inhibition at 10 µM: 12.3%
OVCAR-5
  inhibition at 10 µM: 0%
MDA-MB-435
  inhibition at 10 µM: 0.11%
NCI-H522
  inhibition at 10 µM: 11.6%
UACC-62
  inhibition at 10 µM: 16.8%
786-0
  inhibition at 10 µM: 7.38%
ACHN
  inhibition at 10 µM: 1.98%
SK-MEL-2
  inhibition at 10 µM: 0%
NCI-H23
  inhibition at 10 µM: 0%
A498
  inhibition at 10 µM: 9.85%
OVCAR-4
  inhibition at 10 µM: 0%
NCI-H322M
  inhibition at 10 µM: 4.64%
SN12C
  inhibition at 10 µM: 15.1%
NCI-H226
  inhibition at 10 µM: 14%
NCI/ADR-RES
  inhibition at 10 µM: 0%
M14
  inhibition at 10 µM: 0%
UO-31
  inhibition at 10 µM: 24.7%
HL-60(TB)
  inhibition at 10 µM: 14%
TK-10
  inhibition at 10 µM: 0%
BT-549
  inhibition at 10 µM: 0.37%
U251
  inhibition at 10 µM: 17.8%
LOX IMVI
  inhibition at 10 µM: 124%
